Holding throughout (type): functional
For assay [1], the system named is Pseudomonas aeruginosa. Nature of the assay: Antibacterial activity against Pseudomonas aeruginosa PAO200 harboring mexAB-oprM efflux deficient mutant.
Assay [2] has as its system Pseudomonas aeruginosa. Nature of the assay: Antibacterial activity against wild type Pseudomonas aeruginosa PAO1.
The test system of assay [3] is Pseudomonas aeruginosa. Nature of the assay: Antibacterial activity against Pseudomonas aeruginosa PAO750 harboring mexAB-oprM/mexCD-oprJ/mexEF-oprN/mexJK/mexXY/opmH efflux deficient mutant.
The subject of assay [4] is Pseudomonas aeruginosa. Nature of the assay: Potentiation of ceftazidime-induced antibacterial activity against carbapenem-resistant Pseudomonas aeruginosa 107092 clinical isolate assessed as fold reduction in ceftazidime MIC at 8 uM.
For assay [5], the system named is Pseudomonas aeruginosa. Nature of the assay: Potentiation of aztreonam-induced antibacterial activity against carbapenem-resistant Pseudomonas aeruginosa 86052 clinical isolate assessed as fold reduction in aztreonam MIC at 8 uM.
Assay [6] has as its system Pseudomonas aeruginosa. Nature of the assay: Potentiation of aztreonam-induced antibacterial activity against carbapenem-resistant Pseudomonas aeruginosa 108590 clinical isolate assessed as fold reduction in aztreonam MIC at 8 uM.
The subject of assay [7] is Pseudomonas aeruginosa. Nature of the assay: Potentiation of aztreonam-induced antibacterial activity against carbapenem-resistant Pseudomonas aeruginosa 109084 clinical isolate assessed as fold reduction in aztreonam MIC at 8 uM.
The subject of assay [8] is Pseudomonas aeruginosa. Nature of the assay: Potentiation of ceftazidime-induced antibacterial activity against carbapenem-resistant Pseudomonas aeruginosa 88949 clinical isolate assessed as fold reduction in ceftazidime MIC at 8 uM.
The subject of assay [9] is Pseudomonas aeruginosa. Nature of the assay: Potentiation of aztreonam-induced antibacterial activity against carbapenem-resistant Pseudomonas aeruginosa 107092 clinical isolate assessed as fold reduction in aztreonam MIC at 8 uM.
Assay [10] deals with Pseudomonas aeruginosa. Nature of the assay: Potentiation of aztreonam-induced antibacterial activity against carbapenem-resistant Pseudomonas aeruginosa 88949 clinical isolate assessed as fold reduction in aztreonam MIC at 8 uM.
In assay [11] the test system is Pseudomonas aeruginosa. Nature of the assay: Potentiation of ceftazidime-induced antibacterial activity against carbapenem-resistant Pseudomonas aeruginosa 86052 clinical isolate assessed as fold reduction in ceftazidime MIC at 8 uM.
The test system of assay [12] is Pseudomonas aeruginosa. Nature of the assay: Potentiation of ceftazidime-induced antibacterial activity against carbapenem-resistant Pseudomonas aeruginosa 108590 clinical isolate assessed as fold reduction in ceftazidime MIC at 8 uM.
The test system of assay [13] is Pseudomonas aeruginosa. Nature of the assay: Potentiation of ceftazidime-induced antibacterial activity against carbapenem-resistant Pseudomonas aeruginosa 109084 clinical isolate assessed as fold reduction in ceftazidime MIC at 8 uM.
The subject of assay [14] is Pseudomonas aeruginosa. Nature of the assay: Potentiation of imipenem-induced antibacterial activity against carbapenem-resistant Pseudomonas aeruginosa 86052 clinical isolate assessed as fold reduction in imipenem MIC at 8 uM.
Assay [15] has as its system Pseudomonas aeruginosa. Nature of the assay: Potentiation of imipenem-induced antibacterial activity against carbapenem-resistant Pseudomonas aeruginosa 108590 clinical isolate assessed as fold reduction in imipenem MIC at 8 uM.
Assay [16] relates to Pseudomonas aeruginosa. Nature of the assay: Potentiation of imipenem-induced antibacterial activity against carbapenem-resistant Pseudomonas aeruginosa 109084 clinical isolate assessed as fold reduction in imipenem MIC at 8 uM.
Assay [17] deals with Pseudomonas aeruginosa. Nature of the assay: Potentiation of imipenem-induced antibacterial activity against carbapenem-resistant Pseudomonas aeruginosa 88949 clinical isolate assessed as fold reduction in imipenem MIC at 8 uM.
Assay [18] deals with Pseudomonas aeruginosa. Nature of the assay: Potentiation of imipenem-induced antibacterial activity against carbapenem-resistant Pseudomonas aeruginosa 107092 clinical isolate assessed as fold reduction in imipenem MIC at 8 uM.

Values after ≈ are worked out from the molar mass of the structure shown.

Consider `NC[C@H]1O[C@H](O[C@H]2[C@H](O)[C@@H](O[C@H]3O[C@H](CO)[C@@H](O)[C@H](N)[C@H]3O)[C@H](N)C[C@@H]2N)[C@H](N)C[C@@H]1O` [TOBRAMYCIN], for which the MIC in assay [1], in [2] and in assay [3] was 1 µg/mL (≈ 2.14 µM) throughout.

Consider `O=C(O)c1cn(C2CC2)c2cc(N3CCNCC3)c(F)cc2c1=O` [CIPROFLOXACIN], for which the results for the MIC in assay [1] and in [3] were 0.0156 µg/mL (≈ 0.0471 µM) and 0.0078 µg/mL (≈ 0.0235 µM), respectively.

Consider `NC(=O)[C@@H]1CC[C@@H]2CN1C(=O)N2OS(=O)(=O)O` [AVIBACTAM], for which the “fold change (FC)” value in assay [4], in [5], in assay [6], in assay [7], in [8] and in [9] was 2 in each case. For the same compound, the “fold change (FC)” value in [10], in assay [11], in assay [12] and in assay [13] was 2 throughout.

As to `O.O=C(NC1CCNCC1)[C@@H]1CC[C@@H]2CN1C(=O)N2OS(=O)(=O)O` [RELEBACTAM], the “fold change (FC)” value in assay [14], in assay [15], in [16], in assay [17] and in assay [18] was 2 in each case.

The values are drawn from ChEMBL document CHEMBL4665836, “Overcoming β-Lactam resistance in Pseudomonas aeruginosa using non-canonical tobramycin-based antibiotic adjuvants” (2020).
